Patent publication US20220305012A1, “L[…] TREATING SLEEP ISSUES” (EISAI R&D MANAGEMENT CO., LTD., priority 2019, published 2022)

Key:
Assay type in all cases: in vivo, human
[1] = test system: Subjects Having Insomnia Disorder; test: Example 2: wake after sleep onset (WASO), polysomnography
Experimental: (§1) In some embodiments, a sleep parameter is determined objectively using polysomnography. Polysomnography is the monitoring of multiple electrophysiological parameters during sleep and generally includes measurement of EEG activity, electro-oculographic activity and electromyographic activity, as well as other measurements.
WASO—wake after sleep onset: minutes of wake from the onset of persistent sleep until lights on.
(§2) The treatment period lasted for 31 days. Subjects were randomized in a double-blind manner and received placebo, a tablet containing 5 mg of lemborexant, a tablet containing 10 mg of lemborexant, or a tablet containing 6.25 mg of zolpidem ER.
(§3) Within 5 minutes of the subject's mean habitual bedtime, study drug was administered and an overnight polysomnogram recording was initiated. At completion of the recording the following morning (Day 2), postural stability and cognitive performance were assessed. On the Day 2 evening, subjects returned to the clinic and a blood sample was collected before administering study drug, and then study drug was administered within 5 minutes of the subject's mean habitual bedtime. Again, a polysomnogram recording was initiated. The next morning (Day 3), postural stability and cognitive performance were assessed. A blood sample was also collected.
(§4) On Day 29, subjects returned to the clinic. Study drug was administered within 5 minutes of the subject's mean habitual bedtime and a polysomnogram recording was conducted. On the following morning (Day 30), postural stability and cognitive performance were assessed. After 1.5 hours of waketime, subjects rated their morning sleepiness level.
(§5) On the evening of Day 30, subjects returned to the clinic. A pre-dose blood sample was collected and study drug was again administered within 5 minutes of the subject's mean habitual bedtime. A polysomnogram recording was initiated. The following morning (Day 31), postural stability and cognitive performance were assessed and a blood sample was obtained. The ISI, FSS, EQ-5D-3L and PGI-Insomnia were administered. Blood and urine samples were collected for routine safety assessment. An electrocardiogram was performed, and vital signs and weight were assessed. The eC-SSRS was then administered to the subject. At 1.5 hours after waketime, subjects rated their morning sleepiness level.
Another key secondary endpoint was to determine the change from baseline for mean wake after sleep onset on Days 29 and 30 after administration of 5 mg or 10 mg of lemborexant, compared to placebo.

[2] = test system: Subjects Having Insomnia Disorder; test: Example 2: subjective total sleep time (sTST), sleep diary
Text: As used herein, the term “subjective total sleep time”, abbreviated as “sTST”, means the derived minutes of sleep from sleep onset until the time the subject stopped trying to sleep for the night. In some embodiments, sTST is derived from data entered in a subject's Sleep Diary.
In some embodiments, sleep diaries were used to assess sleep parameters reported by subjects (i.e., subjective assessments) including subjective sleep onset latency (sSOL), subjective sleep efficiency (sSE), subjective WASO (sWASO), and subjective total sleep time (sTST). Subjects were instructed to complete the Sleep Diary developed based on the consensus Sleep Diary as described in Carney et al., “The consensus sleep diary: standardizing prospective sleep self-monitoring,” Sleep 2012; 35(2):287-302. In some embodiments, the Sleep Diary was used to assess the subject's global perception of quality of sleep on the previous night with the following question: “How would you rate the quality of your sleep last night?” Subjects rated the quality of their sleep on a scale from 1 to 9, with 1 being extremely poor and 9 being extremely good. In some embodiments, the Sleep Diary was used to assess subjective ratings of morning sleepiness with the following question: “How alert/sleepy do you feel this morning?” Subjects rated their sleepiness/alertness level on a Likert scale from 1 to 9, with 1 being extremely sleepy and 9 being extremely alert.
sTST—subjective total sleep time: derived minutes of sleep from sleep onset until the time the subject stopped trying to sleep for the night.
as §2
Once home, the subject ingested study drug each night prior to bedtime and completed their sleep diary within 1 hour of waketime.

[3] = test system: Subjects Having Insomnia Disorder; test: Example 2: sleep efficiency (SE), polysomnography
Experimental: as §1
SE—sleep efficiency: proportion of time spent asleep per time in bed, calculated as TST/interval from lights off until lights on.
as §2, §3, §4, §5
One key secondary endpoint was to determine the change from baseline for mean sleep efficiency on Days 29 and 30 after administration of 5 mg or 10 mg of lemborexant, compared to placebo.

[4] = test system: Subjects Having Insomnia Disorder; test: Example 2: postural stability, body sway upon awakening in morning
Text: Subjects were provided with a sleep diary and trained on how to record entries. After subjects completed the sleep diary on 7 consecutive mornings, and provided that the subject was still eligible to participate in the study, they attended a second clinical meeting between 10 and 17 days before the randomization phase. The subject was then fitted with a polysomnogram and trained in how to complete the postural stability assessment and cognitive performance assessment battery. Subjects then underwent an 8-hour polysomnogram recording. Within 5 minutes of waking, the postural stability assessment and cognitive assessment battery were conducted on the subject.
as §3, §4, §5
An exemplary additional secondary endpoint is the change from baseline on the postural stability test of mean units of body sway on Days 2 and 3 after administration of 5 mg or 10 mg of lemborexant compared to zolpidem.

[5] = First 7 Nights of Treatment, Lemborexant 5 mg
[6] = First 7 Nights of Treatment, Lemborexant 10 mg
[7] = Last 7 Nights of Treatment, Lemborexant 5 mg
[8] = Last 7 Nights of Treatment, Lemborexant 10 mg
[9] = Days 29/30, Zolpidem ER 6.25 mg
[10] = First 7 Nights of Treatment, Zolpidem ER 6.25 mg
[11] = Last 7 Nights of Treatment, Zolpidem ER 6.25 mg
[12] = Days 30/31, Zolpidem ER 6.25 mg

## Cc1ncc(OC[C@@]2(c3cccc(F)c3)C[C@H]2C(=O)Nc2ccc(F)cn2)c(C)n1 [Lemborexant, (1R,2S)-2-(((2,4-dimethylpyrimidin-5-yl)oxy)methyl)-2-(3-fluorophenyl)-N-(5-fluoropyridin-2-yl)cyclopropanecarboxamide]
[1]; Days 1/2, Lemborexant 5 mg
  Wake After Sleep Onset, Change from Study Baseline, Mean (SD): −49.96 (39.578)
  Wake After Sleep Onset, Change from Study Baseline, Median: −46.75
  Wake After Sleep Onset, Mean (SD): 63.48 (31.484)
  Wake After Sleep Onset, Median: 58.38
[1]; Days 1/2, Lemborexant 10 mg
  Wake After Sleep Onset, Change from Study Baseline, Mean (SD): −59.59
  Wake After Sleep Onset, Change from Study Baseline, Median: −54.50
  Wake After Sleep Onset, Mean (SD): 55.23
  Wake After Sleep Onset, Median: 48.75
[1]; Days 29/30, Lemborexant 5 mg
  Wake After Sleep Onset, Change from Study Baseline, LSM treatment difference: Lemborexant-Zolpidem: −7.72 (2.876)
  Wake After Sleep Onset, Change from Study Baseline, Mean (SD): −43.89 (39.264)
  Wake After Sleep Onset, Change from Study Baseline, Median: −39.50
  Wake After Sleep Onset, Mean (SD): 69.10 (34.533)
  Wake After Sleep Onset, Median: 62.63
[1]; Days 29/30, Lemborexant 10 mg
  Wake After Sleep Onset, Change from Study Baseline, LSM treatment difference: Lemborexant-Zolpidem: −9.10
  Wake After Sleep Onset, Change from Study Baseline, Mean (SD): −46.43
  Wake After Sleep Onset, Change from Study Baseline, Median: −46.50
  Wake After Sleep Onset, Mean (SD): 68.60
  Wake After Sleep Onset, Median: 62.50
[1]; all lemborexant treatment groups, relative to baseline, placebo and zolpidem treatment groups (Table 15)
  mean wake after sleep onset: reduced
[2]; 10 mg, relative to baseline, placebo and zolpidem treatment groups (Table 21)
  mean subjective total sleep time: increased
[2]; [5]
  Subjective Total Sleep Time, Change from Study Baseline, Mean (SD): 50.30 (60.065)
  Subjective Total Sleep Time, Mean (SD): 322.66 (89.706)
  Subjective Total Sleep Time, Model-adjusted change from baseline: 51.14
[2]; [6]
  Subjective Total Sleep Time, Change from Study Baseline, Mean (SD): 67.80 (71.134)
  Subjective Total Sleep Time, Mean (SD): 332.92 (91.538)
  Subjective Total Sleep Time, Model-adjusted change from baseline: 66.59
[2]; [7]
  Subjective Total Sleep Time, Change from Study Baseline, Mean (SD): 62.41 (68.555)
  Subjective Total Sleep Time, Mean (SD): 334.22 (94.339)
  Subjective Total Sleep Time, Model-adjusted change from baseline: 64.22
[2]; [8]
  Subjective Total Sleep Time, Change from Study Baseline, Mean (SD): 79.95 (81.211)
  Subjective Total Sleep Time, Mean (SD): 343.68 (95.785)
  Subjective Total Sleep Time, Model-adjusted change from baseline: 78.47
[3]; Days 1/2, Lemborexant 5 mg
  Sleep Efficiency, Change from Study Baseline, Mean (SD): 13.60 (9.725)
  Sleep Efficiency, Change from Study Baseline, Median: 12.40
  Sleep Efficiency, Mean (SD): 81.96 (8.384)
  Sleep Efficiency, Median: 83.62
[3]; Days 1/2, Lemborexant 10 mg
  Sleep Efficiency, Change from Study Baseline, Mean (SD): 16.48 (9.623)
  Sleep Efficiency, Change from Study Baseline, Median: 15.47
  Sleep Efficiency, Mean (SD): 84.33 (7.608)
  Sleep Efficiency, Median: 85.73
[3]; Days 29/30, Lemborexant 5 mg
  Sleep Efficiency, Change from Study Baseline, LSM treatment difference: Lemborexant-Zolpidem: 3.92 (0.705)
  Sleep Efficiency, Change from Study Baseline, Mean (SD): 12.93 (9.741)
  Sleep Efficiency, Change from Study Baseline, Median: 11.85
  Sleep Efficiency, Mean (SD): 81.29 (8.800)
  Sleep Efficiency, Median: 83.26
[3]; Days 29/30, Lemborexant 10 mg
  Sleep Efficiency, Change from Study Baseline, LSM treatment difference: Lemborexant-Zolpidem: 4.88 (0.702)
  Sleep Efficiency, Change from Study Baseline, Mean (SD): 14.09 (10.514)
  Sleep Efficiency, Change from Study Baseline, Median: 13.57
  Sleep Efficiency, Mean (SD): 81.99 (8.801)
  Sleep Efficiency, Median: 83.52
[3]; all lemborexant treatment groups, relative to baseline, placebo and zolpidem treatment groups (Table 14)
  mean sleep efficiency: increased
[4]; Days 2/3, Lemborexant 5 mg
  Body Sway Upon Awakening in Morning, Change from Study Baseline, Mean (SD): −0.82 ⅓ degree angle of arc
  Body Sway Upon Awakening in Morning, Change from Study Baseline, Median: −0.50 ⅓ degree angle of arc
  Body Sway Upon Awakening in Morning, Mean (SD): 25.73 ⅓ degree angle of arc
  Body Sway Upon Awakening in Morning, Median: 21.00 ⅓ degree angle of arc
[4]; Days 2/3, Lemborexant 10 mg
  Body Sway Upon Awakening in Morning, Change from Study Baseline, Mean (SD): 0.56 ⅓ degree angle of arc
  Body Sway Upon Awakening in Morning, Change from Study Baseline, Median: 0.50 ⅓ degree angle of arc
  Body Sway Upon Awakening in Morning, Mean (SD): 24.36 ⅓ degree angle of arc
  Body Sway Upon Awakening in Morning, Median: 20.00 ⅓ degree angle of arc
[4]; Days 30/31, Lemborexant 5 mg
  Body Sway Upon Awakening in Morning, Change from Baseline, Mean (SD): −0.85 ⅓ degree angle of arc
  Body Sway Upon Awakening in Morning, Change from Baseline, Median: −0.50 ⅓ degree angle of arc
  Body Sway Upon Awakening in Morning, Mean (SD): 25.10 ⅓ degree angle of arc
  Body Sway Upon Awakening in Morning, Median: 20.50 ⅓ degree angle of arc
[4]; Days 30/31, Lemborexant 10 mg
  Body Sway Upon Awakening in Morning, Change from Baseline, Mean (SD): 0.48 ⅓ degree angle of arc
  Body Sway Upon Awakening in Morning, Change from Baseline, Median: 0.50 ⅓ degree angle of arc
  Body Sway Upon Awakening in Morning, Mean (SD): 22.76 ⅓ degree angle of arc
  Body Sway Upon Awakening in Morning, Median: 18.00 ⅓ degree angle of arc
[4]; Table 24
  effects on postural stability compared to placebo: no significant effects on postural stability compared to placebo
[4]; all lemborexant treatment groups, relative to baseline, placebo and zolpidem treatment groups (Table 24)
  body sway: reduced

## Cc1ccc(-c2nc3ccc(C)cn3c2CC(=O)N(C)C)cc1 [Zolpidem ER, zolpidem, reference compound]
[1]; Days 1/2, Zolpidem ER 6.25 mg
  Wake After Sleep Onset, Change from Study Baseline, Mean (SD): −44.36 (38.074)
  Wake After Sleep Onset, Change from Study Baseline, Median: −44.13
  Wake After Sleep Onset, Mean (SD): 69.92 (33.517)
  Wake After Sleep Onset, Median: 62.00
[1]; [9]
  Wake After Sleep Onset, Change from Study Baseline, Mean (SD): −36.50 (43.406)
  Wake After Sleep Onset, Change from Study Baseline, Median: −34.63
  Wake After Sleep Onset, Mean (SD): 77.71 (39.932)
  Wake After Sleep Onset, Median: 71.00
[2]; [10]
  Subjective Total Sleep Time, Change from Study Baseline, Mean (SD): 56.99 (62.880)
  Subjective Total Sleep Time, Mean (SD): 325.64 (81.845)
  Subjective Total Sleep Time, Model-adjusted change from baseline: 57.71
[2]; [11]
  Subjective Total Sleep Time, Change from Study Baseline, Mean (SD): 71.01 (76.574)
  Subjective Total Sleep Time, Mean (SD): 340.20 (83.582)
  Subjective Total Sleep Time, Model-adjusted change from baseline: 71.04
[3]; Days 1/2, Zolpidem ER 6.25 mg
  Sleep Efficiency, Change from Study Baseline, Mean (SD): 11.70 (9.725)
  Sleep Efficiency, Change from Study Baseline, Median: 10.83
  Sleep Efficiency, Mean (SD): 79.85 (8.461)
  Sleep Efficiency, Median: 80.73
[3]; [9]
  Sleep Efficiency, Change from Study Baseline, Mean (SD): 9.06 (11.230)
  Sleep Efficiency, Change from Study Baseline, Median: 8.39
  Sleep Efficiency, Mean (SD): 77.17 (10.185)
  Sleep Efficiency, Median: 78.70
[4]; Days 2/3, Zolpidem ER 6.25 mg
  Body Sway Upon Awakening in Morning, Change from Study Baseline, Mean (SD): 4.07 ⅓ degree angle of arc
  Body Sway Upon Awakening in Morning, Change from Study Baseline, Median: 2.50 ⅓ degree angle of arc
  Body Sway Upon Awakening in Morning, Mean (SD): 29.86 ⅓ degree angle of arc
  Body Sway Upon Awakening in Morning, Median: 25.00 ⅓ degree angle of arc
[4]; [12]
  Body Sway Upon Awakening in Morning, Change from Baseline, Mean (SD): 2.12 ⅓ degree angle of arc
  Body Sway Upon Awakening in Morning, Change from Baseline, Median: 2.50 ⅓ degree angle of arc
  Body Sway Upon Awakening in Morning, Mean (SD): 27.65 ⅓ degree angle of arc
  Body Sway Upon Awakening in Morning, Median: 22.50 ⅓ degree angle of arc
